According to a melting point compilation (Tetko et al.; mined from patent text by program, amines drawn as free bases though some values may be those of a salt):

SMILES | melting point [°C]
Cc1nc(NC(=O)c2cnn3c(C(F)(F)F)cc(-c4ccc(C(F)(F)F)c(Cl)c4)nc23)sc1S(N)(=O)=O | 299
COC(=O)CCCCCCCCCCCCc1ccccc1 | 30.5 to 31.5
Cc1c(C2CCC(c3ccccc3)(N(C)C)CC2)[nH]c2ccc(OC(F)(F)F)cc12 (stereo not drawn) | 219 to 221
OCC1OC(n2cnc3c(NCCc4cccs4)ncnc32)C(O)C1O (stereo not drawn) | 153 to 154
O=C(Nc1ccc(-n2nc(C(F)(F)F)cc2C2CC2)cc1)c1ccc2nccnc2c1 | 205 to 209
Cc1ccc(-c2nccc(-c3cccc(C(=O)O)c3)n2)cc1 | 225 to 226
O=C(NCC1Cc2cc(Cl)c3c(c2O1)CCC3)OCc1ccccc1 (stereo not drawn) | 118 to 121
CN1C(=O)C(C)(C)N=C(c2ccccc2F)c2cc([N+](=O)[O-])cc(Cl)c21 | 237 to 238
Cc1cccc(-n2nc(C)cc2-c2ccnc(N)c2)c1 | 124 to 125
O=C(Nc1ccc(C(F)(F)F)cc1)NC1CCN(C(=O)c2cccnc2)CC1 | 213 to 217
CCOC(=O)CCCOc1cccc(C=Cc2ccc3ccc(Br)cc3n2)c1 | 61 to 63
CC(=O)n1nc(-c2c(C)cc(C)c([N+](=O)[O-])c2C)n2nc(C(C)(C)C)cc12 | 169 to 171
CSc1nnc(C(F)(F)F)n1C | 46
COC(=O)c1ccnc(OCc2nc(-c3ccccc3)oc2C)c1 | 106 to 107
O=C(O)Cc1c(F)c(F)nc(F)c1Cl | 127 to 129
N#CC1CN1C(=O)CCN1C(=O)c2ccccc2C1=O (stereo not drawn) | 168 to 170
CCCCc1cc2c3n(ccc-2n1)CC(C)=N3 | 162
O=C(O)C1OCC(O)C(O)C1O (stereo not drawn) | 194 to 196
O=C(O)c1ncc(OCc2ccccc2)c(OCc2ccccc2)c1Br | 155 to 157
CC(Cc1cccc(O)c1)NCCC(c1ccccc1)c1ccccc1 (stereo not drawn) | 122 to 124
CN1Cc2c(-c3nc(CCl)cs3)ncn2-c2ccccc2C1=O | 248 to 249
CCc1nnc2cc(C)c(-c3ccc(C(N)=O)cc3)nn12 | 210 to 213
CCOC(=O)C(C)Oc1ncn(-c2cccc(Br)c2)n1 (stereo not drawn) | 83 to 85
COc1c(C)c(C)cc(C)c1C(O)(c1ccc(F)cc1)C(C)C (stereo not drawn) | 102 to 103
CN(C)c1ccc(C(=O)C(C)(C)N2CCOCC2)cc1 | 152 to 155
O=C1CC(c2cccc(-n3ccnc3)c2)=Nc2cc(N3CC[C@@H](O)C3)c(-c3ccc(F)cc3)cc2N1 | 155 to 158
O=C1NC(=O)C2(N1)c1ccccc1-c1ncccc12 (stereo not drawn) | 311 to 312

SMILES | melting point [°C]
CNc1ccncc1N | 163 to 165
O=c1c2cc(F)c(N3CCCC3)nc2n(Cc2ccccc2)c(=O)n1OCc1ccccc1 | 171 to 172
CC(=NO)C1(c2ccc(Cl)c(Cl)c2)CCC1 | 120 to 121
CC(C)C(=O)c1c(C(C)C)nn2ccccc12 | 53 to 55
COC(=O)C1(c2ccc([N+](=O)[O-])cc2)CO1 (stereo not drawn) | 78 to 82
O=C1CC(C(=O)C(F)(F)F)Cc2ccccc21 (stereo not drawn) | 48 to 49
CCCCC(O)c1nc2c(C(F)(F)F)cccc2c(O)c1C(=O)Nc1nccs1 (stereo not drawn) | 190
Cc1ccc(C(=O)NC(NC(=O)Nc2ccccc2)C(Cl)(Cl)Cl)cc1 (stereo not drawn) | 230 to 233
O=C(Nc1ccc(C(=O)N2CCO[C@H]3CCCC[C@@H]32)cc1)c1ccc(Cl)cc1Cl (relative stereo) | 227 to 230
CCCN(CCC)C1Cc2cc3c(cc2C1)C(=O)N(c1ccc(C(N)=O)cc1)C3=O | 275 to 276
O=C(COc1cc(-c2ccccc2)nc2ccc(Cl)cc12)N1CCOCC1 | 182
COC(=O)c1c(C)[nH]c(-c2ncncc2Cl)c1C(=O)OC | 180 to 181
CCCCNC(=O)N1N=C(c2ccc(N)cc2)c2cc(Cl)ccc2CC1C (stereo not drawn) | 89 to 91
COC(=O)c1c(O)c(Br)c(Br)n1C | 128 to 130
CC(=O)N[C@H](CF)CCC(=O)O | 80 to 83
O=C1CCCCc2ccc(N3C[C@H](CO)OC3=O)cc21 | 144 to 146
CCCCCCCCCCCC(CC1OC(=O)C1CCCCCC)OC(=O)C(N)CC(C)C (stereo not drawn) | 27 to 30
COCCNc1c([N+](=O)[O-])cc(C(F)(F)F)c(Cl)c1[N+](=O)[O-] | 106 to 108
COc1cnn(-c2cc(Cl)cc(Cl)c2)c(=O)n1 | 164
CCCCCCCCCCCCOc1cccc(C2=C(O)C(O)(Cc3ccccc3)N(C)C2=O)c1 (stereo not drawn) | 110 to 111
Cc1ccccc1-c1cn(C)cc(-c2ccc(Cl)c(Cl)c2)c1=O | 103 to 106
CC1(C)N=C(c2ccccc2Cl)c2cc(N)ccc2N(CCO)C1=O | 175 to 176
Cc1cc(C)n(C(=O)C2c3ccccc3Oc3ccccc32)n1 | 114 to 115
CCCCOC(=O)C(=O)Nc1nc2ccccc2s1 | 137 to 138
CCc1nc2c(N)nc3cc(-c4ccc(F)nc4)cnc3c2n1CC(C)(C)O | 250 to 251
CC(=O)NCCCn1cc(C2=C(c3cn(C)c4ccccc34)C(=O)NC2=O)c2ccccc21 | 132 to 136

More lines, now with the values ahead:

melting point [°C] | SMILES
219 | COc1cc(F)c(-c2ccc3nc(C(=O)NC(Cc4ccc(OCc5ccccc5)cc4)C(=O)O)cn3c2)c(F)c1 (stereo not drawn)
247 to 250 | CCn1cc(C(=O)O)c(=O)c2cc(F)c(N3CCC(CNC)C3)cc21 (stereo not drawn)
61 to 65 | CCCCOC(=O)N[C@@H](CC(N)=O)C(=O)N[C@@H](Cc1ccccc1)[C@H](O)C(=O)N1CCC[C@H]1C(=O)NC(C)(C)C
225 to 227 | CSc1cc(C)nc(SC)c1NC(=O)C=CC1=C(c2ccccc2)c2ccccc2OC1
265 | CCN(CC)c1ccc(-n2cc(-c3ccc(C4=C(C#N)C(=C(C#N)C#N)OC4(C)C)cc3)nn2)cc1
219 to 220 | Nc1cccc2c1ccn2-c1ccnc(N[C@H]2CC[C@H](O)CC2)n1
134 to 135 | CCCCCCC1=C(Br)C(O)(CO)NC1=O (stereo not drawn)
109 | C#CCOc1cc(Oc2ccc(Cl)c(Cl)c2)ncn1
70 | CN(C)Cc1ccc(CNC(=O)C2Cc3ccccc3N2S(=O)(=O)c2ccc(-c3cccc(C(F)(F)F)c3)cc2)cc1 (stereo not drawn)
151 to 153 | COc1ccc(C[C@@H](CO)NC(=O)c2ccnc(Br)c2)cc1OC
151 to 152 | O=c1c(-c2ccccc2)coc2cc(OCC3CO3)ccc12 (stereo not drawn)
179 to 182 | COc1ccc2cc([C@@H]3CCN(C[C@H](O)COc4cccc5[nH]ccc45)[C@@H](C)C3)sc2c1
261 to 264 | O=c1[nH]c(=O)n(CCCN2CCN(C(c3ccccc3)c3ccccc3)CC2)c2ccccc12
69 to 71 | N#Cc1ccc(N)cc1Sc1ccccc1
105 to 108 | CN1CC(CCCl)Oc2ccccc2C1=S (stereo not drawn)
220 | CCCCc1c(C(=O)O)[nH]c2c(Br)cccc2c1=O
187 to 189 | O=C(CCCCl)Nc1nnc(-c2ccc(Br)cc2)s1
182 to 183 | Cc1nc2ccccc2n2cnc(C(=O)OC(C)C)c12
158 to 160 | Nc1ccc(C2=NNC(c3ccccn3)=NN2)nc1
133 to 134 | CCCCC[C@H](CC(=O)NCc1c(C(C)C)cccc1C(C)C)c1cccc2c1OCO2
84 | COc1ccc(C2=NC(C)(C)C(c3cccs3)C2)cc1 (stereo not drawn)
219 | OC1CSC(Oc2cnccc2-c2ccc(F)cc2)C(O)C1O (stereo not drawn)
119 to 120 | O=C(Nc1ccc(CBr)c(C(F)(F)F)c1)C(F)(F)F
158 to 159 | CN=C(NS(=O)(=O)c1ccc(Cl)c(Cl)c1)SC
250 | O=C1NC(c2ccccc2)=N/C1=C\c1c[nH]c2ncc(Cl)cc12

melting point [°C] | SMILES
144 | CCOC(=O)NC(=S)NCCOCC1=C(C(=O)OCC)C(c2cccc(Cl)c2Cl)C(C(=O)OC)=C(C)N1 (stereo not drawn)
112 to 115 | ClCCC(=C(c1ccccc1)c1ccc(OCCN2CCCC2)cc1)c1ccccc1
90 to 91 | CCOC(=O)Cc1nc2cc(Cl)ccc2o1
136 to 137 | CC1(C(=O)c2ccc(C(=O)O)cc2)CC1
78 | CN(C(=O)CBr)c1ccc(Cl)cc1Cc1ccccc1
74 to 75 | CCCCCOc1ccc(C#N)cc1-c1cc(C(=N)Nc2cccc(C(F)(F)F)c2)ccc1OCCCCC
112 to 113 | CN(C)c1ccc(/C=C/c2c(F)cccc2F)cc1
45 to 48 | CN1C=CCC(C(=O)NCCc2ccc(OC(=O)C(C)(C)C)c(OC(=O)C(C)(C)C)c2)=C1
126 | CN(C)C=C(C#N)C(=O)c1nccs1
232 to 234 | CN(Cc1ccc(NC(=O)C2CCS(=O)(=O)c3ccc(OCc4ccc(F)cc4)cc3C2)cc1)C1CCOCC1 (stereo not drawn)
101 | Cn1c(C(F)(F)F)nn(-c2ccccc2N)c1=O
187 to 188 | c1ccc(-c2[nH]c3ccccc3c2C2CCNCC2)cc1
274 to 276 | COc1cccc2nc(C)n(C3CCC(=O)NC3=O)c(=O)c12 (stereo not drawn)
191 to 194 | Cc1ccc(S(=O)(=O)CNc2nc(C)cc(C)n2)cc1
212 to 213 | CC1(C)CCc2c(N3CCCC3)nc3sc4c(NCc5ccccn5)ncnc4c3c2C1
111 to 112 | CCNC(=O)n1nc(Oc2ncc(C(F)(F)F)cc2Cl)c(Cl)c1C
130 to 132 | CC(=O)Nc1ccccc1Oc1cc2c(=O)ccoc2cc1NS(C)(=O)=O
136 to 140 | C#CCN1C(=O)COc2ccc(N)cc21
140 to 144 | CC(=O)NC1CC(C)(C)N(OC2CCCCC2)C(C)(C)C1
134 to 135 | CCON(c1ccc([N+](=O)[O-])cc1Cl)S(=O)(=O)c1ccc(C)cc1
70 to 74 | CCC(=O)C1C(=O)CC(C#N)CC1=O (stereo not drawn)
63 to 64 | CCc1nc(-c2ccc(OCCCc3cccnc3)cc2)no1
192 to 194 | CCC(CC)Nc1nc(C)nc(N2CCc3cc(OC)cc(Cl)c32)c1C#N
102 | O=C1CCC(c2ccccc2)(c2ccccc2)C2CN(C(Cc3ccccc3)=NCc3cccnc3)CC12 (stereo not drawn)
119 to 120 | CC(=O)N(O)Cc1ccc(OCc2ccccc2)cc1
